The record followed here is patent publication US12624067B2, “Cyclic peptide, cell scaffold material, cell separating material, and medium” (FUJIFILM Corporation, priority 2019, dated 2026).

In one data set the target is human integrin αvβ5 (Homo sapiens, UniProt P06756+P18084). The data set can be described thus: Evaluation of integrin binding property (surface plasmon resonance, Biacore 3000, immobilized cyclic peptide). Conditions: peptide immobilized on CM5 sensor chip; human integrin αvβ5 30-1,000 nM, 25° C., HEPES buffer with 5 mM magnesium chloride; read-out: Integrin binding property (dissociation constant). How it is done: A commercially available CM5 sensor chip (a carboxymethyl dextran introduction type, manufactured by GE Healthcare) was set in a surface plasmon resonance apparatus (product name: Biacore 3000, manufactured by GE Healthcare), the sensor was stabilized at a flow rate of 10 μL/min of a 4-(2-hydroxyethyl)-1-piperazineethanesulfonic acid (HEPES) buffer solution (20 mM HEPES-HCl, 150 mM NaCl, pH 7.4) for surface plasmon resonance (SPR), and 70 μL of a mixed aqueous solution of 0.2 M 1-(3-dimethylaminopropyl)-3-ethylcarbodiimide (EDC) and 0.04 M N-hydroxysuccinimide (NHS) was added thereto. Then, 300 μL of the sample solution of each of the above cyclic peptides diluted to 0.2 g/L with the HEPES buffer solution was supplied to the sensor chip, blocking treatment was subsequently carried out with an ethanolamine solution, and washing was carried out with a sodium hydroxide aqueous solution, whereby immobilization was carried out. However, only for the cyclic peptide 22, in which the number of lysine residues having an amino group as the immobilizing functional group was 1, the sample solution to be supplied to the sensor chip was set to 5,000 μL instead of 300 μL. Similarly; 70 μL of the mixed aqueous solution of 0.2 M EDC and 0.04 M NHS was added to another flow channel of the same sensor chip without immobilizing the sample, and then blocking treatment and washing treatment were carried out. Hereinafter, the obtained immobilization-treated sensor chip is referred to as an “immobilization-treated sensor chip A”.
After adding human integrin αvβ5 for 10 minutes at 25° C., which was diluted to 30 nM using a HEPES buffer solution to which magnesium chloride was added to 5 mM, in each flow channel of the immobilization-treated sensor chip A prepared in (1) above, the same HEPES buffer solution (containing 5 mM magnesium chloride) was allowed to flow as a running buffer for 30 minutes, and measurement was carried out with Biacore 3000.
Then, a regeneration treatment of removing human integrin αvβ5 was carried out by allowing a 0.5 M EDTA aqueous solution to flow through each flow channel for 10 minutes. Further, the above-described measurement process consisting of adding integrin for 10 minutes, allowing a running buffer to flow for 30 minutes, carrying out measurement with Biacore 3000, and carrying out regeneration treatment with 0.5 M EDTA aqueous solution was carried out in the same manner for 100 nM human integrin αvβ5, 300 nM human integrin αvβ5, and 1,000 nM human integrin αvβ5. Dissociation constant between the cyclic peptide and human integrin αvβ5 was calculated from the difference between the value measured by Biacore 3000 in the flow channel immobilized with the cyclic peptide and the value measured by Biacore 3000 in the flow channel unimmobilized with the cyclic peptide, in a case where each concentration of human integrin αvβ5 was allowed to flow; and the integrin binding property was evaluated according to the following evaluation standards. It is preferable that the evaluation result satisfies the evaluation standard A, B, or C.
In general terms: Surface plasmon resonance follows binding to a sensor surface in real time, without labels.

A short description of data set [1]: Evaluation of molecule stability (alkali treatment, LC/MS residual rate). Format: physicochemical. Conditions: 500 μM peptide plus equivalent of 1 M sodium hydroxide, 15° C., 20 minutes, LC/MS peak area. As to the method: The molecule stability of the cyclic peptide was evaluated by analyzing the alkali-treated cyclic peptide aqueous solution by liquid chromatography mass spectroscopy (LC/MS).
The alkali treatment was carried out by the following method. A 500 μM cyclic peptide aqueous solution was prepared, an equivalent of 1 M sodium hydroxide aqueous solution was added to this aqueous solution, and the resultant mixture was incubated at 15° C. for 20 minutes to obtain an alkali-treated cyclic peptide aqueous solution. The cyclic peptide residual rate was calculated by setting the total area of all peaks of the cyclic peptide before alkali treatment in LC/MS to 100% and determining the proportion of the total area of all peaks in LC/MS of the alkali-treated cyclic peptide aqueous solution, and the molecule stability was evaluated according to the following evaluation standards. It is preferable that the evaluation result satisfies the evaluation standard A, B, or C.
The conditions of the LC/MS used for the evaluation of molecule stability were set as follows. • LC apparatus: Prominence series (pump, column oven, autosampler, detector) (manufactured by Shimadzu Corporation) • MS detector: LC/MS2010EV (manufactured by Shimadzu Corporation) • Column: Cadenza CD-C18, inner diameter 2.0 mm×length 250 mm, particle size: 3 μm (manufactured by Imtakt Corporation) • Eluent A: a solution (pH 3) containing 10 mM ammonium formate as a solute, where the solvent is 100% water. • Eluent B: a solution (pH 3) containing 10 mM ammonium formate as a solute, where the solvent is acetonitrile/water=90/10. • Flow rate: 0.2 mL/min • Injection volume: 4 μL • Gradient: 0% to 30%: Eluent B (0 to 30 minutes), 100%: Eluent B (30 to 40 minutes), 0%: Eluent B (40 to 60 minutes)(B indicates the eluent B) • Column temperature: 45° C. • Ionization method: electrospray ionization (ESI) positive, ESI negative

Numbered stars: 1 amine (or outer) side, 2 acyl side, 3 side chain; on linkers, the order of the positions; unused ones are H or OH. Bridge positions count the residues as written; N and C are the ends. Square brackets hold non-standard residues; d marks the D form. Peptide text beside a SMILES is read from it. Pen = CC(C)(S)[C@H](N)C(=O)O; hCys = N[C@@H](CCS)C(=O)O; Orn = NCCC[C@H](N)C(=O)O; X1 = O=C(C[*:1])[*:2]; X2 = O=C(C[*:2])[*:1]

Sequence of human integrin αvβ5 (P06756 31-889 limits assumed): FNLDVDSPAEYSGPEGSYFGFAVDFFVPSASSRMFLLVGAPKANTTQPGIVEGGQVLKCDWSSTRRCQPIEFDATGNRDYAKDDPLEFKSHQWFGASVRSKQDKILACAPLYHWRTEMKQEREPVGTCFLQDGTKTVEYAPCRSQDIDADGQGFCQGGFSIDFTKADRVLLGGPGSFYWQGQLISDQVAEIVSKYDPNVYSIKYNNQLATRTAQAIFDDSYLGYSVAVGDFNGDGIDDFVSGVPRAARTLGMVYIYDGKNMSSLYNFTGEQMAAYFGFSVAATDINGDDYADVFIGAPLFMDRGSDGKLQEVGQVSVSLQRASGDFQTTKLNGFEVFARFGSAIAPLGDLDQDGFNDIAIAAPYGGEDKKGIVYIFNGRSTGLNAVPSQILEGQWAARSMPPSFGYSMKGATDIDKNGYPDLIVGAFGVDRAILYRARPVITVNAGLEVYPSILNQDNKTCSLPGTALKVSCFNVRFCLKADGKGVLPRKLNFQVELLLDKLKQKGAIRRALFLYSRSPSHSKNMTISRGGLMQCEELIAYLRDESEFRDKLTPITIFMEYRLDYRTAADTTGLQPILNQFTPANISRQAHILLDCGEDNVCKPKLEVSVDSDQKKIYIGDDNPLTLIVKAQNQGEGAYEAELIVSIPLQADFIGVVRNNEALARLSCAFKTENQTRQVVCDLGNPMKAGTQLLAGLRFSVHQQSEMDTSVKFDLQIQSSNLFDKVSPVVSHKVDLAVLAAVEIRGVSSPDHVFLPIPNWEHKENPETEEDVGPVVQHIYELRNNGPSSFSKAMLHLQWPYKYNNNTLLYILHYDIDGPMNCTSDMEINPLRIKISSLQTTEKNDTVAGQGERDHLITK
Sequence of human integrin αvβ5 (P06756 891-1048 partner limits assumed): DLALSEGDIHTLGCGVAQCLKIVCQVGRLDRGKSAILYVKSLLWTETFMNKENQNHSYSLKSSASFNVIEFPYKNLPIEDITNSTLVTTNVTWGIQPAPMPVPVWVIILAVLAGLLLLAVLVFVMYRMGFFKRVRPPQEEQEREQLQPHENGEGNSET
Sequence of human integrin αvβ5 (P18084 24-799): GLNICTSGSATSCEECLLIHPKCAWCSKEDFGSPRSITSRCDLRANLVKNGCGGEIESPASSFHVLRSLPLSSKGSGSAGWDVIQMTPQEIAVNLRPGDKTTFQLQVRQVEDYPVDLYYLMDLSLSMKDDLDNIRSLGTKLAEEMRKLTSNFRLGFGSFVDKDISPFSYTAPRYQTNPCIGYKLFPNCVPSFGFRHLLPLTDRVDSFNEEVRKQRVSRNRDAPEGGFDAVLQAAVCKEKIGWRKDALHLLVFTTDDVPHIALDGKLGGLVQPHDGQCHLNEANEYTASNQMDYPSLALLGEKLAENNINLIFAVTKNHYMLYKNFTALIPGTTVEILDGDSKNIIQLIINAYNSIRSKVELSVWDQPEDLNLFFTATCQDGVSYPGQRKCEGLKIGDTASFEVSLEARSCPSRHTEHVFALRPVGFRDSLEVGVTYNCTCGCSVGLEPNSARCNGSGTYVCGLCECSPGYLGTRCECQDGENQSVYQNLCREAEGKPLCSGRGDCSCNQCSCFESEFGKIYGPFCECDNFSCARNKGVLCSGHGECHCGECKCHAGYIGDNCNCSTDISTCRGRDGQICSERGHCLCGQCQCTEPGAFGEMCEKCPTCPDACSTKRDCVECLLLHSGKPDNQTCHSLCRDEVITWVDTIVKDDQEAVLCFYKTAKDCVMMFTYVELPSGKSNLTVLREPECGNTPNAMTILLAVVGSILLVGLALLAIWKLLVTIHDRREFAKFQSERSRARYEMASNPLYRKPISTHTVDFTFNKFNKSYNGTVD

With `CC[C@H](C)[C@@H]1NC(=O)CSCC[C@@H](C(=O)N[C@@H](CCCCN)C(=O)O)NC(=O)[C@H](Cc2ccccc2)NC(=O)[C@@H]2CCCCNC(=O)CSCC[C@H](NC1=O)C(=O)N[C@@H](CCCNC(=N)N)C(=O)NCC(=O)N[C@@H](CC(=O)O)C(=O)N2` [Cyclic peptide 22] ({CH2CO}-I[hCys]RGDKF[hCys]K-OH; linker 2-6 via X1; thioether N-8), the Kd on human integrin αvβ5 was < 50 nM. The “Molecule stability (cyclic peptide residual rate)” value in data set [1] is given as “A (The residual rate of the cyclic peptide is 70% or more.)”.

Turning to `CC[C@H](C)[C@@H]1NC(=O)CSC(C)(C)[C@@H](C(=O)N[C@@H](CCCCN)C(=O)N[C@@H](CCCCN)C(=O)N[C@@H](CCCCN)C(=O)O)NC(=O)[C@H](Cc2ccccc2)NC(=O)[C@@H]2CCSCC(=O)NCCC[C@H](NC1=O)C(=O)N[C@@H](CCCNC(=N)N)C(=O)NCC(=O)N[C@@H](CC(=O)O)C(=O)N2` [Cyclic peptide 23] ({CH2CO}-I[Orn]RGD[hCys]F[Pen]KKK-OH; linker 2-6 via X2; thioether N-8), the Kd at human integrin αvβ5 was < 50 nM. Also, the “Molecule stability (cyclic peptide residual rate)” value in data set [1] is “A (The residual rate of the cyclic peptide is 70% or more.)”.

Consider `CC1(C)SCC(=O)N[C@@H](CCC(=O)O)C(=O)N[C@H]2CCCNC(=O)CSCC[C@H](NC(=O)[C@H](CC(=O)O)NC(=O)CNC(=O)[C@H](CCCNC(=N)N)NC2=O)C(=O)N[C@@H](Cc2ccccc2)C(=O)N[C@@H]1C(=O)N[C@@H](CCCCN)C(=O)N[C@@H](CCCCN)C(=O)N[C@@H](CCCCN)C(=O)O` [Cyclic peptide 24] ({CH2CO}-E[Orn]RGD[hCys]F[Pen]KKK-OH; linker 2-6 via X2; thioether N-8), for which the Kd on human integrin αvβ5 is < 50 nM. The “Molecule stability (cyclic peptide residual rate)” value in data set [1] is “A (The residual rate of the cyclic peptide is 70% or more.)”.

As to `N=C(N)NCCC[C@@H]1NC(=O)[C@@H]2CCSCC(=O)NCCCC[C@H](NC(=O)[C@H](CC(=O)O)NC(=O)CNC1=O)C(=O)N[C@@H](Cc1ccccc1)C(=O)N[C@H](C(=O)N[C@@H](CCCCN)C(=O)N[C@@H](CCCCN)C(=O)N[C@@H](CCCCN)C(=O)O)CCSCC(=O)N[C@@H](Cc1ccc(O)cc1)C(=O)N2` [Cyclic peptide 25] ({CH2CO}-Y[hCys]RGDKF[hCys]KKK-OH; linker 2-6 via X1; thioether N-8), on human integrin αvβ5, the Kd was < 50 nM. The “Molecule stability (cyclic peptide residual rate)” value in data set [1] was “A (The residual rate of the cyclic peptide is 70% or more.)”.

Regarding `CC(C)C[C@@H]1NC(=O)CSCC[C@@H](C(=O)N[C@@H](CCCCN)C(=O)N[C@@H](CCCCN)C(=O)N[C@@H](CCCCN)C(=O)O)NC(=O)[C@H](Cc2ccccc2)NC(=O)[C@@H]2CCCCNC(=O)CSCC[C@H](NC1=O)C(=O)N[C@@H](CCCNC(=N)N)C(=O)NCC(=O)N[C@@H](CC(=O)O)C(=O)N2` [Cyclic peptide 26] ({CH2CO}-L[hCys]RGDKF[hCys]KKK-OH; linker 2-6 via X1; thioether N-8), the Kd at human integrin αvβ5 is < 50 nM. The “Molecule stability (cyclic peptide residual rate)” value in data set [1] is recorded as “A (The residual rate of the cyclic peptide is 70% or more.)”.

As to `C[C@@H](O)[C@@H]1NC(=O)CSCC[C@@H](C(=O)N[C@@H](CCCCN)C(=O)N[C@@H](CCCCN)C(=O)N[C@@H](CCCCN)C(=O)O)NC(=O)[C@H](Cc2ccccc2)NC(=O)[C@@H]2CCCCNC(=O)CSCC[C@H](NC1=O)C(=O)N[C@@H](CCCNC(=N)N)C(=O)NCC(=O)N[C@@H](CC(=O)O)C(=O)N2` [Cyclic peptide 27] ({CH2CO}-T[hCys]RGDKF[hCys]KKK-OH; linker 2-6 via X1; thioether N-8), at human integrin αvβ5, the Kd is < 50 nM. Further, in data set [1], the “Molecule stability (cyclic peptide residual rate)” value is recorded as “A (The residual rate of the cyclic peptide is 70% or more.)”.

Turning to `CC(C)[C@@H]1NC(=O)CSCC[C@@H](C(=O)N[C@@H](CCCCN)C(=O)N[C@@H](CCCCN)C(=O)N[C@@H](CCCCN)C(=O)O)NC(=O)[C@H](Cc2ccccc2)NC(=O)[C@@H]2CCCCNC(=O)CSCC[C@H](NC1=O)C(=O)N[C@@H](CCCNC(=N)N)C(=O)NCC(=O)N[C@@H](CC(=O)O)C(=O)N2` [Cyclic peptide 28] ({CH2CO}-V[hCys]RGDKF[hCys]KKK-OH; linker 2-6 via X1; thioether N-8), the Kd on human integrin αvβ5 was < 50 nM. The “Molecule stability (cyclic peptide residual rate)” value in data set [1] was “A (The residual rate of the cyclic peptide is 70% or more.)”.

With `N=C(N)NCCC[C@@H]1NC(=O)[C@@H]2CCSCC(=O)NCCCC[C@H](NC(=O)[C@H](CC(=O)O)NC(=O)CNC1=O)C(=O)N[C@@H](Cc1ccccc1)C(=O)N[C@H](C(=O)N[C@@H](CCCCN)C(=O)N[C@@H](CCCCN)C(=O)N[C@@H](CCCCN)C(=O)O)CCSCC(=O)N[C@@H](CC(=O)O)C(=O)N2` [Cyclic peptide 29] ({CH2CO}-D[hCys]RGDKF[hCys]KKK-OH; linker 2-6 via X1; thioether N-8), the Kd at human integrin αvβ5 is < 50 nM. Moreover, the “Molecule stability (cyclic peptide residual rate)” value in data set [1] is “A (The residual rate of the cyclic peptide is 70% or more.)”.

With `N=C(N)NCCC[C@@H]1NC(=O)[C@@H]2CCSCC(=O)NCCCC[C@H](NC(=O)[C@H](CC(=O)O)NC(=O)CNC1=O)C(=O)N[C@@H](Cc1ccccc1)C(=O)N[C@H](C(=O)N[C@@H](CCCCN)C(=O)N[C@@H](CCCCN)C(=O)N[C@@H](CCCCN)C(=O)O)CCSCC(=O)N[C@@H](CCC(=O)O)C(=O)N2` [Cyclic peptide 30] ({CH2CO}-E[hCys]RGDKF[hCys]KKK-OH; linker 2-6 via X1; thioether N-8), the Kd on human integrin αvβ5 was < 50 nM. In addition, the “Molecule stability (cyclic peptide residual rate)” value in data set [1] is “A (The residual rate of the cyclic peptide is 70% or more.)”.

As for `CC[C@H](C)[C@@H]1NC(=O)CSCC[C@@H](C(=O)N[C@@H](CCCCN)C(=O)N[C@@H](CCCCN)C(=O)N[C@@H](CCCCN)C(=O)O)NC(=O)[C@@H]2CCCN2C(=O)[C@@H]2CCCCNC(=O)CSCC[C@H](NC1=O)C(=O)N[C@@H](CCCNC(=N)N)C(=O)NCC(=O)N[C@@H](CC(=O)O)C(=O)N2` [Cyclic peptide 31] ({CH2CO}-I[hCys]RGDKP[hCys]KKK-OH; linker 2-6 via X1; thioether N-8), the Kd on human integrin αvβ5 fell in the range of 50 to 100 nM. Further, the “Molecule stability (cyclic peptide residual rate)” value in data set [1] was “A (The residual rate of the cyclic peptide is 70% or more.)”.

`CC[C@H](C)[C@@H]1NC(=O)CSCC[C@@H](C(=O)N[C@@H](CCCCN)C(=O)N[C@@H](CCCCN)C(=O)N[C@@H](CCCCN)C(=O)O)NC(=O)[C@H](Cc2ccc(O)cc2)NC(=O)[C@@H]2CCCCNC(=O)CSCC[C@H](NC1=O)C(=O)N[C@@H](CCCNC(=N)N)C(=O)NCC(=O)N[C@@H](CC(=O)O)C(=O)N2` [Cyclic peptide 32] ({CH2CO}-I[hCys]RGDKY[hCys]KKK-OH; linker 2-6 via X1; thioether N-8): the Kd at human integrin αvβ5 lay within 50 to 100 nM. Further, the “Molecule stability (cyclic peptide residual rate)” value in data set [1] is recorded as “A (The residual rate of the cyclic peptide is 70% or more.)”.
